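Briefly, cells in 96-well plates were exposed to five compound concentrations for 48 h, and endpoints were estimated by linear interpolation. GI50 is the concentration that inhibits growth by half.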 Activity calls are given as the source filed them. No stated cut-off is given here; in the data, active = GI50 up to about 1.1 µM and inactive = higher.
Experiments:
Experiment in all cases: NCI-60 cell line screen, 48 h
COLO 205 = system: COLO 205
HCT-15 = system: HCT-15
Malme-3M = system: Malme-3M
MOLT-4 = system: MOLT-4
NCI-H23 = system: NCI-H23
OVCAR-8 = system: OVCAR-8
M14 = system: M14
DU-145 = system: DU-145
OVCAR-5 = system: OVCAR-5
UACC-62 = system: UACC-62
SN12C = system: SN12C
NCI/ADR-RES = system: NCI/ADR-RES
CAKI-1 = system: CAKI-1
HCC 2998 = system: HCC 2998
SK-MEL-2 = system: SK-MEL-2
HOP-92 = system: HOP-92
NCI-H522 = system: NCI-H522
786-0 = system: 786-0
MDA-MB-435 = system: MDA-MB-435
SK-MEL-28 = system: SK-MEL-28

SMILES	GI50 (COLO 205)	GI50 (HCT-15) [µM]	GI50 (Malme-3M)	GI50 (MOLT-4)	GI50 (NCI-H23)	GI50 (OVCAR-8)	GI50 (M14)	GI50 (DU-145)	GI50 (OVCAR-5)	GI50 (UACC-62)	GI50 (SN12C)	GI50 (NCI/ADR-RES)	GI50 (CAKI-1)	GI50 (HCC 2998)	GI50 (SK-MEL-2)	GI50 (HOP-92)	GI50 (NCI-H522)	GI50 (786-0)	GI50 (MDA-MB-435)	GI50 (SK-MEL-28)
O=C1/C(=C/c2ccccc2)CCc2ccc(Cl)nc21	19.7 µM (inactive)	3.52	11 µM (inactive)	2.28 µM (inactive)	16.6 µM (inactive)	7.8 µM (inactive)	8.04 µM (inactive)	10 µM (inactive)	17.3 µM (inactive)	10.4 µM (inactive)	6.03 µM (inactive)	19.6 µM (inactive)	3.77 µM (inactive)	17 µM (inactive)	16.7 µM (inactive)	15.8 µM (inactive)	2.76 µM (inactive)	7.18 µM (inactive)	6.5 µM (inactive)	14.7 µM (inactive)
CC(C)(C)c1cc(C(=O)/C=C/c2cc[nH]n2)cc(C(C)(C)C)c1O	2.07 µM (inactive)	2.11	7.29 µM (inactive)	2.61 µM (inactive)	2.78 µM (inactive)	2.39 µM (inactive)	1.82 µM (inactive)	2.56 µM (inactive)	5.37 µM (inactive)	3.26 µM (inactive)	1.85 µM (inactive)	4.62 µM (inactive)	2.48 µM (inactive)	1.88 µM (inactive)	1.78 µM (inactive)	2.21 µM (inactive)	1.43 µM (inactive)	1.58 µM (inactive)	2.77 µM (inactive)	6.11 µM (inactive)
COc1cccc(C2CC(C)(O)Oc3cc4c(cc32)OCO4)c1 (stereo not given)	20.7 µM (inactive)	7.01	26.2 µM (inactive)	8.97 µM (inactive)	28.1 µM (inactive)	29.6 µM (inactive)	12.5 µM (inactive)	31.3 µM (inactive)	35.8 µM (inactive)	14.4 µM (inactive)	27.3 µM (inactive)	16.3 µM (inactive)	29 µM (inactive)	27.5 µM (inactive)	9.53 µM (inactive)	26.7 µM (inactive)	7.21 µM (inactive)	33.7 µM (inactive)	3.3 µM (inactive)	52.6 µM (inactive)
CN1CCN(CCCCN2c3ccccc3Sc3cc(N=[N+]=[N-])ccc32)CC1	1.74 µM (inactive)	2.28	1.71 µM (inactive)	1.77 µM (inactive)	6.31 µM (inactive)	1.82 µM (inactive)	1.72 µM (inactive)	4.21 µM (inactive)	12.6 µM (inactive)	2.13 µM (inactive)	2.31 µM (inactive)	2.59 µM (inactive)	2.01 µM (inactive)	1.39 µM (inactive)	2.09 µM (inactive)	1.94 µM (inactive)	1.7 µM (inactive)	1.62 µM (inactive)	1.7 µM (inactive)	1.82 µM (inactive)
O=C(O)COc1c(Cl)cc(Cl)c(C(c2c(Cl)cc(Cl)c(OCC(=O)O)c2Cl)C(Cl)(Cl)Cl)c1Cl	40 µM (inactive)	26.4	28.7 µM (inactive)	35.3 µM (inactive)	25.9 µM (inactive)	43.8 µM (inactive)	20.7 µM (inactive)	38.3 µM (inactive)	29.3 µM (inactive)	18.9 µM (inactive)	31 µM (inactive)	34 µM (inactive)	33.7 µM (inactive)	12.1 µM (inactive)	19.8 µM (inactive)	25.2 µM (inactive)	33.8 µM (inactive)	37.2 µM (inactive)	23 µM (inactive)	40.2 µM (inactive)
CCOC(=O)C(=O)/C(=C/N1C(=O)CC(=O)NC1=S)C(=O)OCC	> 100 µM (inactive)	> 100	> 100 µM (inactive)	> 100 µM (inactive)	> 100 µM (inactive)	> 100 µM (inactive)	> 100 µM (inactive)	> 100 µM (inactive)	> 100 µM (inactive)	> 100 µM (inactive)	> 100 µM (inactive)	> 100 µM (inactive)	> 100 µM (inactive)	> 100 µM (inactive)	> 100 µM (inactive)	9.29 µM (inactive)	> 100 µM (inactive)	> 100 µM (inactive)	> 100 µM (inactive)	> 100 µM (inactive)
CC(C)NCCCNc1c2ccccc2nc2cccc([N+](=O)[O-])c12	0.00161 µM (active)	0.0504	0.0133 µM (active)	0.00211 µM (active)	0.00156 µM (active)	0.00566 µM (active)	0.0113 µM (active)	0.0065 µM (active)	0.0128 µM (active)	0.0125 µM (active)	0.00957 µM (active)	0.794 µM (active)	0.029 µM (active)	0.00406 µM (active)	0.0157 µM (active)	0.00389 µM (active)	0.00161 µM (active)	0.00445 µM (active)	0.0103 µM (active)	0.144 µM (active)
CCOC(=O)N1c2c(c3ccccc3n2C(=O)OCC)C(=O)C(OC)N1C(=O)OCC (stereo not given)	15.5 µM (inactive)	27.7	31.9 µM (inactive)	21.6 µM (inactive)	44.3 µM (inactive)	21.7 µM (inactive)	38.4 µM (inactive)	61.9 µM (inactive)	42 µM (inactive)	40.1 µM (inactive)	28.8 µM (inactive)	22.9 µM (inactive)	28.8 µM (inactive)	33.3 µM (inactive)	16 µM (inactive)	31.3 µM (inactive)	13.3 µM (inactive)	43.2 µM (inactive)	32.1 µM (inactive)	24.2 µM (inactive)
O=C1O[C@H]2[C@@H]3OC(=O)c4cc(O)c(O)c(O)c4-c4c(cc(O)c(O)c4O)C(=O)OC[C@H]2O[C@@H](OC(=O)c2cc(O)c(O)c(O)c2)[C@@H]3OC(=O)c2cc(O)c(O)c3c2[C@@H]2C1=CC(=O)C(O)(O)C2(O)O3 (stereo not given in full)	25.9 µM (inactive)	21.9	84.9 µM (inactive)	25.9 µM (inactive)	33.1 µM (inactive)	19.5 µM (inactive)	19.7 µM (inactive)	47 µM (inactive)	16.4 µM (inactive)	30.1 µM (inactive)	16.9 µM (inactive)	39.3 µM (inactive)	14.1 µM (inactive)	21 µM (inactive)	29.9 µM (inactive)	27.7 µM (inactive)	28.1 µM (inactive)	18.1 µM (inactive)	16.7 µM (inactive)	> 100 µM (inactive)
N#Cc1nc2ccccc2nc1N1CCN(c2ccc([N+](=O)[O-])cc2)CC1	> 100 µM (inactive)	> 100	> 100 µM (inactive)	0.106 µM (active)	> 100 µM (inactive)	> 100 µM (inactive)	> 100 µM (inactive)	> 100 µM (inactive)	> 100 µM (inactive)	> 100 µM (inactive)	> 100 µM (inactive)	> 100 µM (inactive)	> 100 µM (inactive)	> 100 µM (inactive)	> 100 µM (inactive)	> 100 µM (inactive)	> 100 µM (inactive)	> 100 µM (inactive)	> 100 µM (inactive)	> 100 µM (inactive)

From ChEMBL document CHEMBL1201862, “PubChem BioAssay data set” (2004)
